In patent US20040072738A1, “Analogues of thiocoraline and be-22179” (priority 2000, published 2004):
≈ marks a conversion by molar mass, not a printed value. Bridge positions count the residues as written; N and C are the ends. Square brackets hold non-standard residues; d marks the D form. Peptide text beside a SMILES is read from it. I, II: the chains in the order shown. * marks the point of attachment. Quinaldoyl(3-OH) = O=C(c1nc2ccccc2cc1O)*; NMeC = CN[C@@H](CS)C(=O)O

Legend:
[1] = system: DNA topoisomerase II; conditions: cited from earlier work
[2] = system: L1210 cell line; assay: cytotoxic activity in the L1210 assays; conditions: read-out: IC50 cytotoxic activity; L1210 cell line
[3] = system: supercoiled ΦX174 DNA; assay: DNA cleavage assay, conversion of Form I to Form II or Form III; assay type: biochemical
Text: Also examined was the ability of 1 or 2 to cleave, alkylate, or cross-link DNA. In particular, the electrophilic unsaturation found in BE-22179 might be expected to serve as an alkylation site for covalent attachment to DNA, especially following bisintercalation binding. […] These studies would detect both thermally labile and non thermally labile alkylation sites, but only those engaged in interstrand cross-linking. Given the C2 symmetric nature of 2, bisintercalation analogous to echinomycin and triostin A places the two electrophilic sites in positions to react only with the complementary strands of duplex DNA (interstrand DNA cross-linking) and would preclude intrastrand DNA cross-linking.

[4] = solubility in aqueous buffer; assay type: physicochemical; conditions: aqueous Tris-HCl buffer; Tris-HCl pH 7.4, 75 mM NaCl; read-out: agent concentrations where the compounds are soluble
[5] = molecular target: HIV-1 reverse transcriptase (Human immunodeficiency virus type 1 group M subtype B, UniProt P03366); assay: inhibition of HIV-1 reverse transcriptase; assay type: biochemical
[6] = system: duplex deoxyoligonucleotides, 5′-GCXXGC-3′ where XX=TA, AT, GC, CG; assay: fluorescence quenching titration with duplex deoxyoligonucleotides; conditions: high-affinity binding, listed as 1
Text: Consequently, the binding of 1 was examined with a set of four duplex deoxyoligonucleotides, 5′-GCXXGC-3′ where XX=TA, AT, GC, CG, incorporating the high affinity intercalation sites of the related bisintercalatiors echinomycin (5′-PuCGPy) (Corbaz, R., et al., Helv. Chim. Acta 1957, 40, 199; Keller-Schierlein, W., et al., Helv. Chim. Acta 1957, 40, 205; Keller-Schierlein, W., et al., Helv. Chim. Acta 1959, 42, 305; Martin, D. G., et al., J. Antibiot. 1975, 28, 332; Dell, A., et al., J. Am. Chem. Soc. 1975, 97, 2497), sandramycin (5′-CATG) (Boger, D. L., et al., Bioorg. Med. Chem. 1999, 7, 315; Boger, D. L., et al., Bioorg. Med. Chem. 1998, 6, 85), and the luzopeptins (5′-CATG) (Isolation: Konishi, M., et al., J. Antibiot. 1981, 34, 148; Structure and stereochemistry: Arnold, E., et al., J. Am. Chem. Soc. 1981, 103, 1243. Total synthesis (luzopeptins A-C): Boger, D. L., et al., J. Am. Chem. Soc. 1999, 121, 1098; Boger, D. L., et al., J. Am. Chem. Soc. […] The excitation and emission spectra for thiocoraline and BE-22179 were recorded in aqueous buffer (Tris-HCl, pH 7.4, 75 mM NaCl). To minimize fluorescence decrease due to dissolution or photobleaching, the solutions were stirred in 4-mL cuvettes in the dark with the minimum exposure to the excitation beam necessary to obtain a reading. […]

[7] = system: w794 DNA; assay: DNase I and MTE footprinting; assay type: binding
Method: FIG. 9 is an electrophoresis gel of DNase footprinting of echinomycin bound to w794 DNA. Lane 13, G, C and A Sanger sequencing reactions; lane 4, native DNA; lane 5, control DNA without treatment of DNase I; lanes 6-14; 0, 10, 20, 40, 60, 80, 100, 120, and […] echinomycin with DNase I treatment (1 min).
FIG. 10 is an electrophoresis gel of DNase footprinting of thiocoraline bound to w794 DNA. Lane 1, native DNA; lane 2, control DNA without treatment of DNase I; lanes 3-6, G, C, A, and T Sanger sequencing reactions; lanes 7-26; 0, 10, 25, 50, 75, 100, 150, 200, 250, 300, 350, 400, 450, 500, 600, 700, 800, 900, 1000, and […] thiocoraline with DNase I treatment (1 min).

CSC[C@H]1C(=O)SC[C@@H](NC(=O)c2nc3ccccc3cc2O)C(=O)NCC(=O)N(C)[C@H]2CSSC[C@@H](C(=O)N1C)N(C)C(=O)CNC(=O)[C@H](NC(=O)c1nc3ccccc3cc1O)CSC(=O)[C@H](CSC)N(C)C2=O [Thiocoraline] (I: {Quinaldoyl(3-OH)}-[dC]G[NMeC][NMeC](Me) / II: {Quinaldoyl(3-OH)}-[dC]G[NMeC][NMeC](Me); thioester I:1-II:C, I:C-II:1; disulfide I:3-II:3)
inhibition of DNA topoisomerase II [1]: does not inhibit | IC50 [2]: 0.2 nM | DNA cleavage [3]: No evidence | solubility [4]: 1 to 10 µM (≈ 1.16 to 11.6 µg/mL) | inhibition of HIV-1 reverse transcriptase (in words) [5]: weak inhibitor | binding constants for the four deoxyoligonucleotides [6]: 3-7×10^6 M^−1 | selectivity of DNA binding by footprinting [7]: failed to reveal a distinguishable selectivity
